Measurements: US20260022340A1, “ATRIOVENTRICULAR NODE-LIKE PACEMAKER CELLS” (UNIVERSITY HEALTH NETWORK, priority 2022, published 2026)

Tested on: human cardiac progenitors
Assay: Induction of AVN phenotype in hPSC-derived cardiac progenitors, flow cytometry for NKX2-5+TBX3+ myocytes at day 20
Type: cell-based
Method: First, hPSCs were incubated in media containing BMP and Rho-associated protein kinase (ROCK) inhibitor on an orbital shaker to generate embryoid bodies (differentiation protocol day: 0). Then, cardiogenic mesoderm was induced using media containing 1-100 ng/mL BMP4, 1-100 ng/ml Activin A, 1-20 ng/mL bFGF, and 1-10 μM CHIR-99021 (differentiation protocol day: 1). […] The cardiogenic mesoderm can be analyzed at day 3/4 of differentiation for the expression of PDGFRa, RALDH2 and CD235a, and should be PDGFRa+RALDH2− and CD235a^low (max 50% positive).
Next, cardiac progenitors were induced using media that contained 0.5-10 μM IWP2 and 1-20 ng/mL VEGF (differentiation protocol day: 3). At this stage, the cardiac progenitors may be a mixed population of early stage (NKX2-5^−) and late stage (NKX2-5^+) cardiac progenitors which may be contractile or not. […] Culture was continued in media that contained 5 ng/mL VEGF until day 12 of the differentiation protocol. The culture was maintained until day 20 of the differentiation protocol before analysis. […] FIGS. 3B, 4B, 5A and 5B present the percentage of NKX2-5^+ TBX3^+ myocytes of total cells present in the culture.
A NKX2-5:GFP+TBX3:tdTomato+ transgenic double reporter hPSC line was cultured using the protocol described in Example 1. AVNLPCs were identified and isolated using Fluorescence-activated cell sorting (FACS), based on their expression of NKX2-5 and TBX3 and the associated expression of the fluorescent reporter (FIG. 2).

For `Cc1c[nH]c(-c2cnc(NCCNc3ccc(C#N)cn3)nc2-c2ccc(Cl)cc2Cl)n1` [CHIR-99021], the “Change in NKX2-5+TBX3+ AVNLPCs of total cell population at day 20” value (9 uM CHIR from day 8-11, day 11-15 or day 15-18, n=5 (FIG. 3B)) was “significant increase”, the “CHIR-99021 concentration at which relatively more NKX2-5+TBX3+ myocytes were induced” value (3-15 μM used) was 12 to 15 µM and the “CHIR concentration giving highest percentage of NKX2-5+TBX3+ AVNLPCs” value (treatment day 8-11, day 20 analysis, n=5 (FIG. 4B)) was 12 to 15 µM.
